Data as given in US8415156B2, “Recombinant laminin-521” (Biolamina AB, priority 2010, dated 2013).

What was measured:
human ES cells = experiment: Long-term culture with single cell dissociation passaging (Example 1); assay type: cell-based; details: for proliferation rate compared with Matrigel / classical methods: single cell suspension passaging vs passaging in clumps
Procedure: Human ES cells were cultured on r-laminin-521-coated laboratory dishes in chemically defined O3 medium (described in Rodin et al., Nature Biotechnol., vol. 28, pp. 611-615 (2010)) at 37° C. in 5% CO2. Cells were routinely passed once every 10-12 days by exposure to Trypsin-EDTA solution (GIBCO Invitrogen) for 5 minutes at 37° C. They were then gently pipetted to break into single-cell suspension and defined trypsin inhibitor (GIBCO Invitrogen) was added. The cell suspension was centrifuged […], the supernatant discarded, the cell pellet resuspended in prewarmed O3 medium, and cells were then passed through a 40 μm sieve. After that cells were plated on new r-laminin-521-coated dishes at a concentration 30 Kcells/cm^2 (1:25-1:30 split ratio). Cells were fed once a day with fresh medium prewarmed in an incubator for 1 hour, except for the first day after a passage, when only a few drops of fresh medium were added. Control cells of the same line were cultured on Matrigel (BD Biosciences) in O3 medium as described in Rodin et al., Nature Biotechnol., vol. 28, pp. 611-615 (2010). Control cells were passaged in pieces.

OCT4 = experiment: FACS analysis for Oct4; assay type: cell-based, human; details: after several single cell suspension passages, O3 medium without additives
Procedure: OCT4 expression was analyzed as described in Ludwig, T. E. et al. Derivation of human embryonic stem cells in defined conditions. Nat. Biotechnol. 24, 185-187 (2006). Cells were run on FACSCalibur Flow Cytometer (Becton Dickinson). Data were analyzed with CellQuest software (Becton Dickinson).

HS181, HS401, H1 cells = experiment: Long-term self-renewal of hES cells on LN-521 (Example 2); assay type: cell-based, human
Procedure: Human ES cells of HS181 and HS401 were cultured on LN-521-coated culture dishes in O3 medium (described in Rodin et al., Nature Biotechnol., vol. 28, pp. 611-615 (2010) with pH was adjusted to 7.35), mTeSR1 (STEMCELL Technologies) and chemically defined and xeno-free TeSR2 (STEMCELL Technologies) at 37° C., 5% CO2. Initially, cells of the lines were transferred onto a LN-521 coating from a human feeder cell layer by careful scratching using a sterile knife with subsequent trypsinization, or the cells were trypsinized into single cell suspension from a LN-511 coating. The cells were provided once a day with fresh medium pre-warmed in an incubator for one hour, except for the first day after plating, when only a few drops of fresh medium were added. Cells were routinely passed once in 10-12 days by exposure to Trypsin/EDTA (GIBCO Invitrogen Corporation, Paisley, Scotland) for 5 minutes at 37° C., 5% CO2. They were then gently pipetted to break into single-cell suspension and a Defined Trypsin Inhibitor (GIBCO Invitrogen) was added. The cell suspension was centrifuged at 25 rcf for 4 minutes, the supernatant was discarded, the cell pellet was resuspended in prewarmed O3 medium, and the cells were then passed through a 40 μm sieve. Subsequently, the cells were plated on new LN-521-coated dishes at a concentration of 30,000 cells/cm^2 in 1:25-1:30 split ratios. Control cells of the same line were cultured on Matrigel (STEMCELL Technologies) and LN-511 in O3 medium as described previously.^9
For defined and xeno-free cultures, TeSR2 (STEMCELL Technologies) medium and defined free from any animal derived component TrypLE™ Select (GIBCO Invitrogen Corporation, Paisley, Scotland) enzyme were used. The cells were passed every 10-14 days by exposure to TrypLE™ Select for 4-5 minutes at 37° C., 5% CO2. Then, the enzyme was carefully aspirated and prewarmed TeSR2 medium was added. After that, the cells were gently pipetted to break into single-cell suspension, centrifuged, the supernatant was discarded, and the cell pellet was resuspended in prewarmed TeSR2. The cells were then passed through a 40 μm sieve and plated on a fresh LN-521 coated dish.

hES cells [1] = experiment: In vivo imaging and migration assay; assay type: cell-based, human
Procedure: 24-well plates were coated by extracellular matrix proteins and blocked by O3 medium containing bovine serum albumin. The ES cells were plated at cell density of 30,000-40,000 cells/cm^2 onto extracellular matrix-coated plates and left to adhere for half an hour in a cell incubator. After that, the plate was transferred into high content imaging system Operetta (PerkinElmer) equipped with environmental control unit, which allowed to keep 37° C., 5% CO2. For two movies that were made, the brightfield images were taken once in 15 minutes during 24 hours after plating using Harmony software (PerkinElmer), exported, and analyzed using ImageJ software (NIH, the US). For migration assay the images were taken every seven minutes during 18 hours after plating. Images acquired between the fifth and seventh hours after plating were analyzed using MTrackJ plug-in (University Medical Center, Rotterdam, The Netherlands). 100 attached cells on each coating were traced and mean distances from the current to the previous point of the track were calculated. Error bars show standard error of the mean s.e.m. (n=100).

hES cells [2] = experiment: Clonal survival of individualized hES cells (Example 4); assay type: cell-based, human; details: mTeSR1; 250 cells per cm^2; 5 days; alkaline phosphatase staining
Procedure: hES cells were plated in mTeSR1 medium on different coatings at a density of 250 cells per cm^2 and monitored after 5 days in culture using an alkaline phosphatase staining kit.
Next, combinations of laminin-521 and E-Cadherin were tested to determine whether the combinations could sustain clonal survival of the cells. Fixed amounts of laminin-521 were used for the cell culture dish coating in combination with titrated E-Cadherin.
Additional tests were performed to test the effects of various modifications to the mTeSR1 medium. A mixture of E-Cadherin to laminin-521 in a ratio of about 1:10 w/w was used to coat the plates. […] Time-lapse photography of the cells confirmed that laminin-521/E-Cadherin coatings facilitated cell survival through proliferation of the single cells, not through the aggregation of different cells.

Integrin α6β1 = Integrin α6β1 (Homo sapiens, UniProt P05556+P23229); details: cited from earlier work
Chain of Integrin α6β1 (P23229 24-1130): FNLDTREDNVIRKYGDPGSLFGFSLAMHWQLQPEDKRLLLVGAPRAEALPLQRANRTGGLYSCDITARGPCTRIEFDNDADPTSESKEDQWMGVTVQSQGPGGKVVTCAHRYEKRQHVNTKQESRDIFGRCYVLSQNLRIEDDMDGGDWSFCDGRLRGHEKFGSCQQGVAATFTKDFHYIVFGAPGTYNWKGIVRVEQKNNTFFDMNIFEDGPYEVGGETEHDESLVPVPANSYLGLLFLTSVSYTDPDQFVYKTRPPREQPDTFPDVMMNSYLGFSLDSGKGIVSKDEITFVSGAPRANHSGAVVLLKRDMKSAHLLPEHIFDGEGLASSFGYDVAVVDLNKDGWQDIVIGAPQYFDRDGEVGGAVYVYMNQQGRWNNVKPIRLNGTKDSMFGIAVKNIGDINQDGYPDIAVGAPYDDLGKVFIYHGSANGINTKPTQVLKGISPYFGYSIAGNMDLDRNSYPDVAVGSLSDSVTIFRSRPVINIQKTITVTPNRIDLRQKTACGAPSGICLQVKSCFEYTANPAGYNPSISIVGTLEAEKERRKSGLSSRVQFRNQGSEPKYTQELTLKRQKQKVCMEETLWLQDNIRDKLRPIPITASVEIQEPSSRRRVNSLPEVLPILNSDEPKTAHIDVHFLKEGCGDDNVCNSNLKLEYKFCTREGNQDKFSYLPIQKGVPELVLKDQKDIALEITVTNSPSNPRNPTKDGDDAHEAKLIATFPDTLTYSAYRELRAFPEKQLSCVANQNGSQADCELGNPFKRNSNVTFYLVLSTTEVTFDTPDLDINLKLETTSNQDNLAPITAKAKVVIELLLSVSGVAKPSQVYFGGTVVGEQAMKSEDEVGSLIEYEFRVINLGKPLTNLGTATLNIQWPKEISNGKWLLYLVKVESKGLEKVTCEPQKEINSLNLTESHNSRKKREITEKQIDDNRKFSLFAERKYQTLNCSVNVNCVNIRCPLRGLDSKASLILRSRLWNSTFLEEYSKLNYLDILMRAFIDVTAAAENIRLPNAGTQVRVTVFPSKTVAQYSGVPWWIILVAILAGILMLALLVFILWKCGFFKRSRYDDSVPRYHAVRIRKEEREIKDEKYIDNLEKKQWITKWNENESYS
Chain of Integrin α6β1 (P05556 21-798): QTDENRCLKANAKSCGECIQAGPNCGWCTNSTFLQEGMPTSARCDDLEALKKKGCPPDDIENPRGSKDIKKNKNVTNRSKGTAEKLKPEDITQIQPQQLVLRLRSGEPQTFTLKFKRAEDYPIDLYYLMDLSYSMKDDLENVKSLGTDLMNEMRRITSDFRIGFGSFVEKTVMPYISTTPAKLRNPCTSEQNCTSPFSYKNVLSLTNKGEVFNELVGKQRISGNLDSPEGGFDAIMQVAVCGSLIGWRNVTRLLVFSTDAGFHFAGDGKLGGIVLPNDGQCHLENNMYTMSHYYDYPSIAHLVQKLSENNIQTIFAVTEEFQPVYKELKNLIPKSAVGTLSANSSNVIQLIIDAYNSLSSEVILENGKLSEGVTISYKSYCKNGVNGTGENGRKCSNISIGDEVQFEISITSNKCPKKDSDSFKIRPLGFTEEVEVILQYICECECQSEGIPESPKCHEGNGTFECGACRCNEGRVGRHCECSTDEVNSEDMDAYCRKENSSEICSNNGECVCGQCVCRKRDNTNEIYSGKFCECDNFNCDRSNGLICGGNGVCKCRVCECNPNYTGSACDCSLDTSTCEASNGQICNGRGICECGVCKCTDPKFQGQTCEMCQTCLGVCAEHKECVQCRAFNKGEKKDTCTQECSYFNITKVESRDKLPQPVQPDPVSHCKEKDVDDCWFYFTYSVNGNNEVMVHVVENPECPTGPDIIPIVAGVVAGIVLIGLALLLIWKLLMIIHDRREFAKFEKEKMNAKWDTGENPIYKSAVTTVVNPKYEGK

LN-521: protein formed by joining α5, β2 and γ1 chains together; human recombinant, produced in HEK293 cells
passages in single cell suspension giving the same number of cell divisions as cultures on Matrigel after 20 passages (human ES cells; 3 passages = 1 month, Matrigel passaged in pieces, 20 passages (3 months / 100 days)): 3 passages
passages with robust proliferation at a stable and high rate (human ES cells; single cell passaging every 10-12 days, 1:25 to 1:30 ratios, 3 months): at least 9 passages
proliferation rate compared with Matrigel / classical methods (human ES cells): much faster rate
proliferation rate compared with Matrigel / classical methods (human ES cells; listed as laminin-521): higher rate
percentage of Oct4 positive (pluripotent) cells compared with Matrigel (OCT4): much higher percentage
passages of proliferation, HS401 cells (HS181, HS401, H1 cells; O3 medium, 2 months): ≥ 5 passages
passages of proliferation, H1 cells (HS181, HS401, H1 cells; O3 medium, 6 months): ≥ 15 passages
passages of proliferation, HS181 cells (HS181, HS401, H1 cells; O3 medium, 9 months): at least 24 passages
passages cultured, HS401 cells (HS181, HS401, H1 cells; TeSR2, TrypLE Select, xeno-free, 1.5 months): 4 passages
passages cultured, H1 cells (HS181, HS401, H1 cells; TeSR2, TrypLE Select, xeno-free, 5 months): 12 passages
plating efficacy after a passage in TeSR2 compared with O3 or mTeSR1 media (HS181, HS401, H1 cells; TeSR2 medium and TrypLE Select): slightly lower
migration of cells (in vivo imaging) compared with Matrigel (hES cells [1]): much faster
motility of hES cells between the fifth and seventh hours after plating (hES cells [1]; compared with Matrigel, LN-111, LN-511): higher than that of the cells on other coatings
clonal survival of individualized hES cells (hES cells [2]): Neither laminin-521 nor E-Cadherin alone permitted efficient clonal survival
binding affinity of integrin α6β1 (Integrin α6β1): higher than that for LN-111
